In experiment [1] the target is 3CL^pro Q299A (Severe acute respiratory syndrome coronavirus 2, UniProt P0DTD1, Q3562A). Format: cell-based, SARS-CoV-2.
Experiment [2] concerns the target 3CL^pro M165A (Severe acute respiratory syndrome coronavirus 2, UniProt P0DTD1, M3428A). Format: cell-based, SARS-CoV-2.

As to `C=C1C(=O)O[C@H]2[C@H]1CC/C(C)=C/CC[C@@]1(C)O[C@@H]21` [parthenolide], the “inhibition in Q299A compared to WT” value in experiment [1] is reported as “reduced”. Moreover, the “inhibition in M165A compared to WT” value in experiment [2] is on record as “reduced”.

These data come from publication PMC9603010 (ACS Bio & Med Chem Au, 2022).
